Target: T1, CBL-B (Homo sapiens, UniProt Q13191)
T1 construct: GST
Assay: CBL-B TR-FRET IC50 screening (E1/E2 ubiquitination, Biotin-Ubiquitin, Anti GST-Tb donor / Streptavidin-d2 acceptor)
Type: biochemical
Conditions: CBL-B 10 nM final; 11-point titration from 100 uM; binned A-F; read-out: CBL-B TR-FRET activity IC50

T1 sequence (Q13191 whole entry): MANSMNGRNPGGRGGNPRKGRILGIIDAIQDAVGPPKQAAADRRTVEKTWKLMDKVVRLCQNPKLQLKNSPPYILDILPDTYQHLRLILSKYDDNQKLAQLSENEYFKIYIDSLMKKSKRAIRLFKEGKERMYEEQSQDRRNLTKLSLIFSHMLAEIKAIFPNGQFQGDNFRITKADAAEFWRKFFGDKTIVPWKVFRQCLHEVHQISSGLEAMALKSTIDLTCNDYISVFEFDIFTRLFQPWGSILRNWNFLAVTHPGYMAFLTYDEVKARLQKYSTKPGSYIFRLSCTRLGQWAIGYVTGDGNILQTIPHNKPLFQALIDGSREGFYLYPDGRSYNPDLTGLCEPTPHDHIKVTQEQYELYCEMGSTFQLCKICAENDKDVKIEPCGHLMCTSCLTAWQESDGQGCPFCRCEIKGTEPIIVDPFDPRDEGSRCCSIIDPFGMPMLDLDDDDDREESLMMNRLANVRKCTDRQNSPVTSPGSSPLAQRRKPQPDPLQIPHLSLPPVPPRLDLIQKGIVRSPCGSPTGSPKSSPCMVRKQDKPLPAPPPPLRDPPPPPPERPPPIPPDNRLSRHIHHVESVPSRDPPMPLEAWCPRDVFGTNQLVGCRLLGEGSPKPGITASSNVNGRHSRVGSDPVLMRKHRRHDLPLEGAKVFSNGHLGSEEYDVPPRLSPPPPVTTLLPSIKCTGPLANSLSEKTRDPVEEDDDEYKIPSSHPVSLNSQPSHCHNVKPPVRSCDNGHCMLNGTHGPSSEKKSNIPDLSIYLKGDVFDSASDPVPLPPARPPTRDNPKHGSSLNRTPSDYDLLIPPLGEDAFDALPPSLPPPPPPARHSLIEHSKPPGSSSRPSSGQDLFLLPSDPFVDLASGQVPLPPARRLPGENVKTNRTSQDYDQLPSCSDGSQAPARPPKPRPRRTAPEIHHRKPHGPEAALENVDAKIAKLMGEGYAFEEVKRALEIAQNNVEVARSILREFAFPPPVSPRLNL

Row | SMILES | IC50
1 | Cn1cnnc1C[C@H]1CCc2c1cccc2-n1cc2c(C(F)(F)F)cccn2c1=O (single isomer, unassigned) [Compound 16] | > 10000 nM
2 | Cn1cnnc1CC1(c2cccc(-n3cc4c(C(F)(F)F)cc(CO)cn4c3=O)c2)COC1 (single isomer, unassigned) [Compound 81] | 301 to 1000 nM
3 | C[C@H]1CCCN(Cc2cc(C(F)(F)F)c3cn(-c4cccc([C@@H](c5nncn5C)C5COC5)c4)c(=O)n3c2)C1 (single isomer, unassigned) [Compound 134] | 301 to 1000 nM
4 | [2H]C([2H])([2H])n1cnnc1[C@H](c1cccc(-n2cc3c(C(F)(F)F)cc(CN4CCC[C@H](C)C4)cn3c2=O)c1)C1CCC1 (single isomer, unassigned) [Compound 136] | 301 to 1000 nM
5 | [2H]C([2H])([2H])n1cnnc1[C@H](c1cccc(-n2cc3c(C(F)(F)F)cc(CN4CCO[C@H](C)C4)cn3c2=O)c1)C1CCC1 (single isomer, unassigned) [Compound 138] | 1000 to 3000 nM
6 | CC(C)C[C@H](c1cccc(-n2cc3c(C(F)(F)F)cc(CN4CCC[C@H](C)C4)cn3c2=O)c1)c1nncn1C (single isomer, unassigned) [Compound 151] | 301 to 1000 nM
7 | CC(C)C[C@@H](c1cccc(-n2cc3c(C(F)(F)F)cc(CN4CCC[C@H](C)C4)cn3c2=O)c1)c1nncn1C (single isomer, unassigned) [Compound 152] | > 10000 nM
8 | Cn1cnnc1[C@H](c1cccc(-n2cc3c(C(F)(F)F)cc(CN4CCC5(CC5)C4)cn3c2=O)c1)C1CCC1 (single isomer, unassigned) [Compound 162] | 1000 to 3000 nM
9 | Cn1cnnc1[C@H](c1cccc(-n2cc3c(C(F)(F)F)cc(CN4CC5(CC5)C4)cn3c2=O)c1)C1CCC1 (single isomer, unassigned) [Compound 164] | 3000 to 10000 nM
10 | CC1CN(Cc2cc(C(F)(F)F)c3cn(-c4cccc([C@@H](c5nncn5C)C5CCC5)c4)c(=O)n3c2)CCC1(F)F (single isomer, unassigned) [Compound 169] | 3000 to 10000 nM
11 | CC1CN(Cc2cc(C(F)(F)F)c3cn(-c4cccc([C@@H](c5nncn5C)C5CCC5)c4)c(=O)n3c2)CCC1(F)F (single isomer, unassigned) [Compound 170] | 1000 to 3000 nM
12 | CC1CN(Cc2cc(C(F)(F)F)c3cn(-c4cccc([C@H](c5nncn5C)C5CCC5)c4)c(=O)n3c2)CCC1(F)F (single isomer, unassigned) [Compound 171] | < 100 nM
13 | CC1CN(Cc2cc(C(F)(F)F)c3cn(-c4cccc([C@H](c5nncn5C)C5CCC5)c4)c(=O)n3c2)CCC1(F)F (single isomer, unassigned) [Compound 172] | < 100 nM
14 | Cn1cnnc1[C@H](c1cccc(-n2cc3c(C(F)(F)F)cc(CN4CC[C@H](C#N)C4)cn3c2=O)c1)C1CCC1 (single isomer, unassigned) [Compound 173] | 3000 to 10000 nM
15 | Cn1cnnc1[C@@H](c1cccc(-n2cc3c(C(F)(F)F)cc(CN4CC[C@H](C#N)C4)cn3c2=O)c1)C1CCC1 (single isomer, unassigned) [Compound 174] | < 100 nM
16 | Cn1cnnc1CC1(c2cccc(-n3cc4c(C(F)(F)F)cc(CN5CCCC(O)CC5)cn4c3=O)c2)COC1 (single isomer, unassigned) [Compound 176] | < 100 nM
17 | Cn1cnnc1CC1(c2cccc(-n3cc4c(C(F)(F)F)cc(CN5CCCC(O)CC5)cn4c3=O)c2)COC1 (single isomer, unassigned) [Compound 177] | < 100 nM
18 | CN1CCCCC1c1cc(C(F)(F)F)c2cn(-c3cccc(C4(Cc5nncn5C)COC4)c3)c(=O)n2c1 (single isomer, unassigned) [Compound 186] | 100 to 300 nM
19 | CN1CCCCC1c1cc(C(F)(F)F)c2cn(-c3cccc(C4(Cc5nncn5C)COC4)c3)c(=O)n2c1 (single isomer, unassigned) [Compound 187] | 100 to 300 nM
20 | [2H]C([2H])([2H])n1cnnc1C1(c2cccc(-n3cc4c(C(F)(F)F)cc(CN5CCC[C@H](C)C5)cn4c3=O)c2)CC(C)C1 (single isomer, unassigned) [Compound 189] | < 100 nM
21 | CC1CC(c2cccc(-n3cc4c(C(F)(F)F)cc(CN5CCO[C@H](C)C5)cn4c3=O)c2)(c2nncn2C)C1 (single isomer, unassigned) [Compound 190] | < 100 nM
22 | CC(c1cc(C(F)(F)F)c2cn(-c3cccc([C@@H](c4nncn4C)C4CCC4)c3)c(=O)n2c1)N1CCC[C@H](C)C1 (single isomer, unassigned) [Compound 191] | 301 to 1000 nM
23 | CC(c1cc(C(F)(F)F)c2cn(-c3cccc([C@@H](c4nncn4C)C4CCC4)c3)c(=O)n2c1)N1CCC[C@H](C)C1 (single isomer, unassigned) [Compound 192] | < 100 nM
24 | CC(c1cc(C(F)(F)F)c2cn(-c3cccc([C@H](c4nncn4C)C4CCC4)c3)c(=O)n2c1)N1CCC[C@H](C)C1 (single isomer, unassigned) [Compound 193] | < 100 nM
25 | CC(c1cc(C(F)(F)F)c2cn(-c3cccc([C@H](c4nncn4C)C4CCC4)c3)c(=O)n2c1)N1CCC[C@H](C)C1 (single isomer, unassigned) [Compound 194] | < 100 nM
26 | C[C@H]1CCCN(C(c2cc(C(F)(F)F)c3cn(-c4cccc(C5(Cc6nncn6C)COC5)c4)c(=O)n3c2)C(F)(F)F)C1 (single isomer, unassigned) [Compound 195] | 100 to 300 nM
27 | C[C@H]1CCCN(C(c2cc(C(F)(F)F)c3cn(-c4cccc(C5(Cc6nncn6C)COC5)c4)c(=O)n3c2)C(F)(F)F)C1 (single isomer, unassigned) [Compound 196] | 301 to 1000 nM

The next lines start with the values.

Row | IC50 | SMILES
28 | < 100 nM | C[C@@H](c1cc(C(F)(F)F)c2cn(-c3cccc(C4(Cc5nncn5C)COC4)c3)c(=O)n2c1)N1CC2CC2C1 (single isomer, unassigned) [Compound 32]
29 | < 100 nM | Cn1cnnc1[C@H](F)C1(c2cccc(-n3cc4c(C(F)(F)F)cc(CN5CCC(F)CC5)cn4c3=O)c2)COC1 (single isomer, unassigned) [Compound 45]
30 | < 100 nM | C[C@H]1CCCN(Cc2cc(C(F)(F)F)c3cn(-c4cccc([C@]5(c6nncn6C)C[C@@H](C)C5)c4)c(=O)n3c2)C1 (single isomer, unassigned) [Compound 59]
31 | < 100 nM | C[C@H]1CCCN(Cc2cc(C(F)(F)F)c3cn(-c4cccc([C@]5(c6nncn6C)C[C@@H](C)C5)c4)c(=O)n3c2)C1 (single isomer, unassigned) [Compound 60]
32 | < 100 nM | Cn1cnnc1CC1(c2cccc(-n3cc4c(Cl)cc(CN5CCC6(CC6)C5)cn4c3=O)c2)COC1 (single isomer, unassigned) [Compound 67]
33 | < 100 nM | C=C(C)C[C@@H](c1cccc(-n2cc3c(C(F)(F)F)cc(CN4CCC[C@H](C)C4)cn3c2=O)c1)c1nncn1C (single isomer, unassigned) [Compound 68]
34 | < 100 nM | CN1CCC(c2cc(C(F)(F)F)c3cn(-c4cccc(C5(Cc6nncn6C)COC5)c4)c(=O)n3c2)CC1 (single isomer, unassigned) [Compound 82]
35 | < 100 nM | CC(c1cc(C(F)(F)F)c2cn(-c3cccc(C4(Cc5nncn5C(F)F)COC4)c3)c(=O)n2c1)N1CCC(F)CC1 (single isomer, unassigned) [Compound 96]
36 | < 100 nM | CC(c1cc(C(F)(F)F)c2cn(-c3cccc(C4(Cc5nncn5C(F)F)COC4)c3)c(=O)n2c1)N1CCC(F)CC1 (single isomer, unassigned) [Compound 97]
37 | < 100 nM | CC1CN(Cc2cc(C(F)(F)F)c3cn(-c4cccc([C@]5(Cc6nncn6C)C[C@@H](C#N)C5)c4)c(=O)n3c2)CCC1(F)F (single isomer, unassigned) [Compound 99]
38 | < 100 nM | CC1CN(Cc2cc(C(F)(F)F)c3cn(-c4cccc([C@]5(Cc6nncn6C)C[C@@H](C#N)C5)c4)c(=O)n3c2)CCC1(F)F (single isomer, unassigned) [Compound 100]
39 | < 100 nM | CC(c1cc(C(F)(F)F)c2cn(-c3cccc(C4(Cc5nncn5C)COC4)c3)c(=O)n2c1)N1CCC[C@H](C)C1 (single isomer, unassigned) [Compound 119]
40 | < 100 nM | CC(c1cc(C(F)(F)F)c2cn(-c3cccc(C4(Cc5nncn5C)COC4)c3)c(=O)n2c1)N1CCC[C@H](C)C1 (single isomer, unassigned) [Compound 120]
41 | < 100 nM | [2H]C([2H])([2H])n1cnnc1[C@@H](c1cccc(-n2cc3c(C(F)(F)F)cc(CN4CCC[C@H](C)C4)cn3c2=O)c1)C1CCC1 (single isomer, unassigned) [Compound 135]
42 | < 100 nM | [2H]C([2H])([2H])n1cnnc1[C@@H](c1cccc(-n2cc3c(C(F)(F)F)cc(CN4CCO[C@H](C)C4)cn3c2=O)c1)C1CCC1 (single isomer, unassigned) [Compound 137]
43 | < 100 nM | CC1CC(c2cccc(-n3cc4c(C(F)(F)F)cc(Br)cn4c3=O)c2)(c2nncn2C)C1 (single isomer, unassigned) [Compound 150]
44 | < 100 nM | CC1CC(c2cccc(-n3cc4c(C(F)(F)F)cc(Br)cn4c3=O)c2)(c2nncn2C)C1 (single isomer, unassigned) [Compound 154]
45 | < 100 nM | CC(c1cc(C(F)(F)F)c2cn(-c3cccc(C4(Cc5nncn5C)COC4)c3)c(=O)n2c1)N1CCO[C@H](C)C1 (single isomer, unassigned) [Compound 156]
46 | < 100 nM | CC(c1cc(C(F)(F)F)c2cn(-c3cccc(C4(Cc5nncn5C)COC4)c3)c(=O)n2c1)N1CCO[C@H](C)C1 (single isomer, unassigned) [Compound 157]
47 | < 100 nM | Cn1cnnc1[C@@H](c1cccc(-n2cc3c(C(F)(F)F)cc(CN4CC[C@H](F)C4)cn3c2=O)c1)C1CCC1 (single isomer, unassigned) [Compound 159]
48 | < 100 nM | Cn1cnnc1[C@@H](c1cccc(-n2cc3c(C(F)(F)F)cc(CN4CCC(C)(F)CC4)cn3c2=O)c1)C1CCC1 (single isomer, unassigned) [Compound 161]
49 | < 100 nM | Cn1cnnc1[C@@H](c1cccc(-n2cc3c(C(F)(F)F)cc(CN4CCC5(CC5)C4)cn3c2=O)c1)C1CCC1 (single isomer, unassigned) [Compound 163]
50 | < 100 nM | Cn1cnnc1[C@@H](c1cccc(-n2cc3c(C(F)(F)F)cc(CN4CC5(CC5)C4)cn3c2=O)c1)C1CCC1 (single isomer, unassigned) [Compound 165]

Reference: patent US20240228482A1, “COMPOUNDS, COMPOSITIONS AND METHODS OF TREATING CANCER” (HOTSPOT THERAPEUTICS, INC., priority 2021, published 2024)
